Data as given in the NIST ThermoML archive (doi:10.1021/je7001946).

Assay: mn = molality of the nth substance listed, in mol/kg
Conditions: 101.3 kPa, Liquid; for speed of sound: Pulse-echo method

[Br-].[Br-].[Mn+2] [manganese(II) bromide] + CC#N
Conditions | mass density, 288.15 K [kg/m3] | mass density, 293.15 K [kg/m3] | mass density, 298.15 K [kg/m3] | mass density, 303.15 K [kg/m3] | mass density, 308.15 K [kg/m3] | mass density, 313.15 K [kg/m3] | mass density, 323.15 K [kg/m3] | speed of sound, 298.15 K [m/s]
m1 = 0.0415 | 793.652 | 788.26 | 782.85 | 777.408 | 771.942 | 766.441 | 755.33 | –
m1 = 0.0513 | 795.156 | 789.764 | 784.353 | 778.907 | 773.433 | 767.926 | 756.805 | –
m1 = 0.06115 | 796.676 | 791.28 | 785.862 | 780.415 | 774.941 | 769.432 | 758.311 | 1277.2
m1 = 0.07131 | 798.243 | 792.85 | 787.428 | 781.978 | 776.494 | 770.984 | 759.855 | –
m1 = 0.08138 | 799.819 | 794.414 | 788.989 | 783.537 | 778.054 | 772.539 | 761.403 | 1276.9
m1 = 0.09054 | 801.238 | 795.84 | 790.408 | 784.953 | 779.461 | 773.94 | 762.804 | –
m1 = 0.1006 | 802.824 | 797.413 | 791.982 | 786.518 | 781.03 | 775.513 | 764.368 | 1276.7
m1 = 0.1214 | 806.091 | 800.671 | 795.23 | 789.765 | 784.269 | 778.744 | 767.585 | –
m1 = 0.1406 | 809.125 | 803.696 | 798.249 | 792.776 | 787.272 | 781.741 | 770.567 | 1276.1
m1 = 0.1603 | 812.287 | 806.853 | 801.398 | 795.916 | 790.407 | 784.868 | 773.687 | –
m1 = 0.1712 | 814.024 | 808.58 | 803.121 | 797.634 | 792.128 | 786.584 | 775.396 | 1275.7
m1 = 0.1804 | 815.501 | 810.054 | 804.59 | 799.11 | 793.589 | 788.041 | 776.847 | –
m1 = 0.1995 | 818.585 | 813.117 | 807.642 | 802.149 | 796.622 | 791.065 | 779.856 | 1275.3

[Br-].[Br-].[Zn+2] [zinc bromide] + CC#N
Conditions | mass density, 288.15 K [kg/m3] | mass density, 293.15 K [kg/m3] | mass density, 298.15 K [kg/m3] | mass density, 303.15 K [kg/m3] | mass density, 308.15 K [kg/m3] | mass density, 313.15 K [kg/m3] | mass density, 323.15 K [kg/m3] | speed of sound, 298.15 K [m/s]
m1 = 0.02964 | – | – | – | – | – | – | – | 1277.1
m1 = 0.03209 | 792.171 | 786.781 | 781.365 | 775.922 | 770.453 | 764.95 | 753.836 | –
m1 = 0.0404 | 793.435 | 788.04 | 782.622 | 777.179 | 771.701 | 766.197 | 755.075 | –
m1 = 0.04717 | 794.467 | 789.072 | 783.65 | 778.202 | 772.724 | 767.215 | 756.09 | 1276.4
m1 = 0.05609 | 795.839 | 790.436 | 785.044 | 779.559 | 774.08 | 768.567 | 757.437 | –
m1 = 0.06324 | 796.938 | 791.534 | 786.108 | 780.651 | 775.17 | 769.655 | 758.516 | 1275.7
m1 = 0.07124 | 798.167 | 792.766 | 787.332 | 781.876 | 776.393 | 770.874 | 759.73 | –
m1 = 0.07952 | 799.446 | 794.033 | 788.597 | 783.143 | 777.651 | 772.126 | 760.98 | 1275.1
m1 = 0.09524 | 801.876 | 796.466 | 791.02 | 785.546 | 780.047 | 774.52 | 763.359 | –
m1 = 0.1099 | 804.162 | 798.743 | 793.295 | 787.86 | 782.357 | 776.822 | 765.649 | 1273.6
m1 = 0.1252 | 806.567 | 801.138 | 795.677 | 790.202 | 784.687 | 779.149 | 767.969 | –
m1 = 0.1317 | 807.593 | 802.157 | 796.698 | 791.221 | 785.702 | 780.162 | 768.971 | 1272.5
m1 = 0.1402 | 808.922 | 803.487 | 798.026 | 792.539 | 787.024 | 781.476 | 770.273 | –
m1 = 0.1554 | – | – | – | – | – | – | – | 1271.2

[Br][Co][Br] [cobalt(II) bromide] + CC#N
Conditions | mass density, 288.15 K [kg/m3] | mass density, 293.15 K [kg/m3] | mass density, 298.15 K [kg/m3] | mass density, 303.15 K [kg/m3] | mass density, 308.15 K [kg/m3] | mass density, 313.15 K [kg/m3] | mass density, 323.15 K [kg/m3] | speed of sound, 298.15 K [m/s]
m1 = 0.06384 | 797.529 | 792.118 | 786.677 | 781.218 | 775.72 | 770.192 | 759.026 | –
m1 = 0.08092 | 800.3 | 794.88 | 789.432 | 783.966 | 778.458 | 772.92 | 761.738 | –
m1 = 0.09698 | 802.926 | 797.495 | 792.044 | 786.563 | 781.049 | 775.5 | 764.302 | 1277
m1 = 0.1125 | 805.465 | 800.033 | 794.565 | 789.08 | 783.57 | 778.02 | 766.801 | –
m1 = 0.1286 | 808.142 | 802.7 | 797.232 | 791.742 | 786.222 | 780.656 | 769.421 | 1276
m1 = 0.1428 | 810.505 | 805.061 | 799.583 | 794.089 | 788.55 | 782.985 | 771.734 | –
m1 = 0.1587 | 813.161 | 807.703 | 802.224 | 796.713 | 791.168 | 785.595 | 774.335 | 1275.3
m1 = 0.19 | 818.466 | 812.988 | 807.489 | 801.964 | 796.411 | 790.822 | 779.533 | 1274.6
m1 = 0.2204 | 823.615 | 818.13 | 812.623 | 807.083 | 801.513 | 795.917 | 784.593 | 1273.9
m1 = 0.2527 | 829.214 | 823.715 | 818.194 | 812.642 | 807.057 | 801.45 | 790.088 | –
m1 = 0.2636 | 831.14 | 825.637 | 820.113 | 814.557 | 808.967 | 803.34 | 791.988 | 1273.2
m1 = 0.2777 | 833.591 | 828.085 | 822.557 | 816.995 | 811.404 | 805.778 | 794.405 | –
m1 = 0.3089 | 839.134 | 833.612 | 828.072 | 822.494 | 816.889 | 811.253 | 799.854 | 1272.1
